# Laboratory results: ChEMBL document CHEMBL1151859, “Structure-activity relationship studies of a novel series of anthrax lethal factor inhibitors” (Bioorg Med Chem, 2009)
# Molecular target: T1, Lethal factor (Bacillus anthracis, UniProt P15917)
# T1 sequence (P15917 whole entry): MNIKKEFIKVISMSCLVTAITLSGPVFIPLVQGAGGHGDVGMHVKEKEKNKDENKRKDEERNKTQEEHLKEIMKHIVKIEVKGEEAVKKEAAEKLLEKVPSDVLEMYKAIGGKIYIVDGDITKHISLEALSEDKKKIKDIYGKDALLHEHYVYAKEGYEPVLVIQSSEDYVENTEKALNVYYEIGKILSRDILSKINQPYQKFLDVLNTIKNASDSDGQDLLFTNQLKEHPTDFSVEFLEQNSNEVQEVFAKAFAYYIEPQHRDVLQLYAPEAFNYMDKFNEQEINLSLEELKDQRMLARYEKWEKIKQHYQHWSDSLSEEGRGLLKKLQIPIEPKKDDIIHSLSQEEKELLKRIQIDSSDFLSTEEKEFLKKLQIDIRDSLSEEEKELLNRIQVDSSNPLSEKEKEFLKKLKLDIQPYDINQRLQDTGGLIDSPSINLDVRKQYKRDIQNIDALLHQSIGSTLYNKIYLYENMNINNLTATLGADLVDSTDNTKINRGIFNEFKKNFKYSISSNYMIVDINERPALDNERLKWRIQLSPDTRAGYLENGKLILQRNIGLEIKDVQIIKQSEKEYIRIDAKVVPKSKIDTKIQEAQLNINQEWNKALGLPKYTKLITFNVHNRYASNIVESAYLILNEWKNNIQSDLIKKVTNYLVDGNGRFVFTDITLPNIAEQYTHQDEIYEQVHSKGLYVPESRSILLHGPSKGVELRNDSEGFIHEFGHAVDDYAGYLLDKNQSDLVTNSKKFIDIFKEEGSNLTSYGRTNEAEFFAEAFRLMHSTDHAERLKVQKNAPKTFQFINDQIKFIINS
# Assay: Inhibition of Bacillus anthracis lethal factor assessed as cleavage of MAPKK by fluorescence peptide cleavage assay
SMILES,IC50,Ki
O=S(=O)(Nc1sccc1-c1nc2ccccc2s1)c1ccc(F)c(Cl)c1,13 µM,
CC(=O)Nc1ccc(S(=O)(=O)Nc2sccc2-c2nc3ccccc3s2)cc1,24 µM,
COc1ccc(-c2ccc(S(=O)(=O)NCCc3nc4ccccc4s3)cc2)cc1,> 50 µM,
Cc1csc(NS(=O)(=O)c2ccc(F)cc2)c1-c1nc2ccccc2s1,> 100 µM,
O=S(=O)(Nc1sccc1-c1nc2ccccc2s1)c1ccc2nonc2c1,30 µM,
COc1ccc(-c2cccc(S(=O)(=O)Nc3scc(C)c3-c3nc4ccccc4s3)c2)cc1,16 µM,
Cc1csc(NS(=O)(=O)c2ccc(-c3ccccc3)cc2)c1-c1nc2ccccc2s1,17 µM,
O=S(=O)(Nc1sccc1-c1nc2ccccc2s1)c1ccc(Cl)cc1F,18 µM,
Cc1ccc(S(=O)(=O)Nc2sccc2-c2nc3ccccc3s2)cc1F,11 µM,
O=S(=O)(Nc1sccc1-c1nc2ccccc2s1)c1ccccc1C(F)(F)F,9.3 µM,
Cc1csc(NS(=O)(=O)c2cccc(Cl)c2C)c1-c1nc2ccccc2s1,100 µM,
O=S(=O)(Nc1sccc1-c1nc2ccccc2s1)c1cccc(-c2ccc(Cl)cc2)c1,18 µM,
Cc1nccc(-c2cccc(S(=O)(=O)Nc3sccc3-c3nc4ccccc4s3)c2)n1,12 µM,
Cc1csc(NS(=O)(=O)c2ccccc2C(F)(F)F)c1-c1nc2ccccc2s1,> 100 µM,
Cc1csc(NS(=O)(=O)c2ccc(OC(F)(F)F)cc2)c1-c1nc2ccccc2s1,18 µM,
O=S(=O)(Nc1sccc1-c1nc2ccccc2s1)c1ccc(-c2ccc(OC(F)(F)F)cc2)cc1,3.9 µM,
COc1ccc(-c2ccc(S(=O)(=O)Nc3nc4ccccc4s3)cc2)cc1,> 50 µM,
CC(=O)Nc1ccc(S(=O)(=O)Nc2scc(C)c2-c2nc3ccccc3s2)cc1,14 µM,
O=S(=O)(Nc1sccc1-c1nc2ccccc2s1)c1ccc(-c2ccc(C(F)(F)F)cc2)cc1,8 µM,
Cc1ccc(S(=O)(=O)Nc2scc(C)c2-c2nc3ccccc3s2)cc1Cl,8.9 µM,
COc1ccc(-c2ccc(S(=O)(=O)Nc3scc(C)c3-c3nc4ccccc4s3)cc2)cc1,21 µM,
Cc1csc(N(S(=O)(=O)c2ccc(OC(F)(F)F)cc2)S(=O)(=O)c2ccc(OC(F)(F)F)cc2)c1-c1nc2ccccc2s1,> 100 µM,
Cc1csc(NS(=O)(=O)c2ccc(Cl)cc2F)c1-c1nc2ccccc2s1,19 µM,

SMILES,IC50,Ki
Cc1c(S(=O)(=O)Nc2sccc2-c2nc3ccccc3s2)cnn1-c1ccccc1,> 50 µM,
O=S(=O)(Nc1sccc1-c1nc2ccccc2s1)c1ccc(F)cc1,16 µM,
Cc1csc(NS(=O)(=O)c2cccc(OC(F)(F)F)c2)c1-c1nc2ccccc2s1,11 µM,
O=S(=O)(Nc1sccc1-c1nc2ccccc2s1)c1cccc(Cl)c1F,30 µM,
Cc1ccc(S(=O)(=O)Nc2scc(C)c2-c2nc3ccccc3s2)cc1[N+](=O)[O-],48 µM,
CS(=O)(=O)CS(=O)(=O)Nc1sccc1-c1nc2ccccc2s1,19 µM,
COc1ccc(-c2ccc(S(=O)(=O)Nc3oncc3-c3nc4ccccc4s3)cc2)cc1,> 100 µM,
COc1ccc(-c2cccc(S(=O)(=O)Nc3sccc3-c3nc4ccccc4s3)c2)cc1,14 µM,
Cc1csc(NS(=O)(=O)c2ccccc2)c1-c1nc2ccccc2s1,> 100 µM,
O=S(=O)(Nc1sccc1-c1nc2ccccc2s1)c1cccc(-c2ccccc2)c1,13 µM,
O=S(=O)(Nc1sccc1-c1nc2ccccc2s1)c1ccc2cc(Cl)ccc2c1,11 µM,
O=S(=O)(Nc1sccc1-c1nc2ccccc2s1)c1ccc2c(c1)CCO2,22 µM,
O=S(=O)(Nc1sccc1-c1nc2ccccc2s1)c1ccc(-n2cccn2)cc1,8 µM,
Cc1csc(NS(=O)(=O)c2ccc(Cl)c(C(F)(F)F)c2)c1-c1nc2ccccc2s1,11 µM,
O=S(=O)(Nc1sccc1-c1nc2ccccc2s1)c1ccc(S(=O)(=O)N2CCOCC2)cc1,17 µM,
O=S(=O)(Nc1sccc1-c1nc2ccccc2s1)c1ccc(-c2ccc(Cl)c(Cl)c2)cc1,7.2 µM,
COc1ccc(S(=O)(=O)Nc2scc(C)c2-c2nc3ccccc3s2)cc1,46 µM,
O=S(=O)(Nc1sccc1-c1nc2ccccc2s1)c1ccc(OC(F)(F)F)cc1,9.6 µM,
O=C(NCc1ccc(S(=O)(=O)Nc2sccc2-c2nc3ccccc3s2)s1)c1ccc(Cl)cc1,14 µM,
O=S(=O)(Nc1sccc1-c1nc2ccccc2s1)c1ccc(Cl)cc1,15 µM,
Cc1cc(C)n(-c2ccc(S(=O)(=O)Nc3sccc3-c3nc4ccccc4s3)cc2)n1,11 µM,
Nc1sccc1-c1nc2ccccc2s1,> 100 µM,
O=S(=O)(Nc1sccc1-c1nc2ccccc2s1)c1ccccc1,39 µM,

SMILES,IC50,Ki
O=S(=O)(Nc1sccc1-c1nc2ccccc2s1)c1ccc(-c2cnco2)cc1,13 µM,
Cc1ccc(-c2ccc(S(=O)(=O)Nc3sccc3-c3nc4ccccc4s3)cc2)cc1,28 µM,
Cc1csc(NS(=O)(=O)c2ccc(F)c(Cl)c2)c1-c1nc2ccccc2s1,> 100 µM,
Cc1ccc(S(=O)(=O)Nc2scc(C)c2-c2nc3ccccc3s2)cc1F,35 µM,
COc1ccc(-c2ccc(S(=O)(=O)Nc3sccc3-c3nc4ccccc4s3)cc2)cc1OC,9 µM,
O=S(=O)(Nc1sccc1-c1nc2ccccc2s1)c1ccc(-c2ccno2)s1,19 µM,
Cc1csc(NS(=O)(=O)c2cccc(Cl)c2)c1-c1nc2ccccc2s1,> 100 µM,
O=S(=O)(Nc1sccc1-c1nc2ccccc2s1)c1ccc(Br)c(Cl)c1,4.5 µM,
Cc1csc(NS(=O)(=O)c2cccc(C(F)(F)F)c2)c1-c1nc2ccccc2s1,9.4 µM,
Cc1ccc(S(=O)(=O)Nc2sccc2-c2nc3ccccc3s2)cc1,13 µM,
COc1ccc(S(=O)(=O)Nc2scc(C)c2-c2nc3ccccc3s2)cc1OC,34 µM,
Cc1ccc(S(=O)(=O)Nc2scc(C)c2-c2nc3ccccc3s2)cc1,> 100 µM,
CN1CCOc2cc(S(=O)(=O)Nc3sccc3-c3nc4ccccc4s3)cnc21,27 µM,
O=S(=O)(Nc1sccc1-c1nc2ccccc2s1)c1cccc(C(F)(F)F)c1,16 µM,
Cc1csc(NS(=O)(=O)c2ccc(-c3ccc(Cl)cc3)cc2)c1-c1nc2ccccc2s1,12 µM,
Cc1csc(NS(=O)(=O)c2ccc(Cl)cc2)c1-c1nc2ccccc2s1,15 µM,7.8 µM
O=S(=O)(Nc1sccc1-c1nc2ccccc2s1)c1ccco1,> 50 µM,
Cc1csc(NS(=O)(=O)c2ccc(C(C)(C)C)cc2)c1-c1nc2ccccc2s1,> 100 µM,
Cc1ccc(S(=O)(=O)Nc2sccc2-c2nc3ccccc3s2)cc1[N+](=O)[O-],10 µM,
O=S(=O)(Nc1sccc1-c1nc2ccccc2s1)c1ccc(Cl)c(Cl)c1,9 µM,
O=S(=O)(Nc1sccc1-c1nc2ccccc2s1)c1ccc(Oc2ccccc2)nc1,43 µM,
Cc1cc(S(=O)(=O)Nc2sccc2-c2nc3ccccc3s2)ccc1F,12 µM,
COc1cccc(S(=O)(=O)Nc2scc(C)c2-c2nc3ccccc3s2)c1,11 µM,

SMILES,IC50,Ki
O=S(=O)(NCCc1nc2ccccc2s1)c1ccc(-c2ccc(Cl)cc2)cc1,> 50 µM,
COc1ccc(S(=O)(=O)Nc2sccc2-c2nc3ccccc3s2)cc1,18 µM,
O=S(=O)(Nc1sccc1-c1nc2ccccc2s1)c1ccc(Cl)c(C(F)(F)F)c1,10 µM,
O=S(=O)(Nc1ccccc1-c1nc2ccccc2s1)c1ccc(-c2ccc(Cl)cc2)cc1,100 µM,
O=S(=O)(Nc1sccc1-c1nc2ccccc2s1)c1ccc2c(c1)OCCO2,27 µM,
Cc1csc(N(S(=O)(=O)c2cccc(C(F)(F)F)c2)S(=O)(=O)c2cccc(C(F)(F)F)c2)c1-c1nc2ccccc2s1,> 100 µM,
COc1ccccc1Oc1ccc(S(=O)(=O)Nc2sccc2-c2nc3ccccc3s2)cc1,> 50 µM,
Cc1csc(NS(=O)(=O)c2ccc(Cl)c(Cl)c2)c1-c1nc2ccccc2s1,> 100 µM,
O=S(=O)(Nc1nc2ccccc2s1)c1ccc(-c2ccc(Cl)cc2)cc1,> 50 µM,
Cc1csc(NS(=O)(=O)c2cccc(-c3ccc(Cl)cc3)c2)c1-c1nc2ccccc2s1,22 µM,
O=S(=O)(Nc1sccc1-c1nc2ccccc2s1)c1ccc(Br)cc1,8 µM,
O=S(=O)(Nc1sccc1-c1nc2ccccc2s1)c1ccc(C(F)(F)F)cc1,11 µM,
Cc1csc(NS(=O)(=O)c2cccc(-c3ccccc3)c2)c1-c1nc2ccccc2s1,19 µM,
COc1ccc(-c2ccc(S(=O)(=O)Nc3sccc3-c3nc4ccccc4s3)cc2Cl)cc1,3 µM,
COc1ccc(-c2ccc(S(=O)(=O)Nc3ccccc3-c3nc4ccccc4s3)cc2)cc1,> 100 µM,
Cc1csc(N)c1-c1nc2ccccc2s1,> 100 µM,
CC(C)(C)c1ccc(S(=O)(=O)Nc2sccc2-c2nc3ccccc3s2)cc1,13 µM,
Cc1ccc(S(=O)(=O)Nc2nc3ccccc3s2)cc1Cl,28 µM,
O=S(=O)(Nc1sccc1-c1nc2ccccc2s1)c1ccc(Oc2ccccc2Cl)cc1,9 µM,
Cc1csc(NS(=O)(=O)c2ccc3ccccc3c2)c1-c1nc2ccccc2s1,12 µM,
Cc1c(S(=O)(=O)Nc2sccc2-c2nc3ccccc3s2)sc2ccccc12,10 µM,
Cc1csc(NS(=O)(=O)c2cc(Cl)c(Cl)cc2Cl)c1-c1nc2ccccc2s1,15 µM,
